According to ChEMBL document CHEMBL1201862, “PubChem BioAssay data set” (2004):
The source made the active and inactive calls. For most assays here, no stated cut-off is given here; in the data, actives have a measured IC50 and inactives only a lower limit.

Assays:
[1] = molecular target: Glyceraldehyde-3-phosphate dehydrogenase (Homo sapiens, UniProt P04406)
Bcl-2-related protein A1 [2] = molecular target: T1, Bcl-2-related protein A1 (Mus musculus, UniProt Q07440); experiment: small-molecule antagonists of Bfl-1/BH3 interaction – biochemical, TR-FRET, mouse Bfl-1, confirmation (AID 621);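 further: TR-FRET binding of GST-Bfl-1 to FITC-labelled Bid peptide via terbium antibody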
T1 sequence (Q07440 whole entry): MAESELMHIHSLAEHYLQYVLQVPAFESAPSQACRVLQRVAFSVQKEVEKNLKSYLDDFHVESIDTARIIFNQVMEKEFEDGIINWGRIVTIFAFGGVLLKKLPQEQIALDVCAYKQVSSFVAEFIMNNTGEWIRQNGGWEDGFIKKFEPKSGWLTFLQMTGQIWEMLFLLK

Bcl-2-related protein A1 [3] = molecular target: T1, Bcl-2-related protein A1; experiment: Bfl-1 binding inhibitors, SAR follow-up, biochemical, fluorescence polarization (AID 1070)
[4] = viability of PTEN-deleted HCT116 cells – cell-based, HCT116 PTEN knockout, dose response (AID 1047); assay type: functional;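 further: HCT116 colon tumor cells with PTEN knocked out; cells exposed to compound for 60 hours before readout; potency for loss of cell viability measured by luminescence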
[5] = molecular target: Peroxisome proliferator-activated receptor gamma/Nuclear receptor corepressor 2 (Homo sapiens, UniProt P37231+Q9Y618); experiment: Counterscreen for NR2E3 inverse agonists: TR-FRET-based biochemical high throughput dose response assay to identify inverse agonists of the interaction between peroxisome proliferator-activated receptor gamma (PPARg) and nuclear receptor co-repressor 2 (NCOR2).; assay type: functional
[6] = molecular target: Photoreceptor-specific nuclear receptor (Homo sapiens, UniProt Q9Y5X4); experiment: ligands suppressing NR2E3 nuclear receptor activity – biochemical, TR-FRET, dose response (AID 463256); assay type: functional
[7] = viability of HCT116 lacking mutant beta-catenin – cell-based, human colon tumor, dose response (AID 1045); assay type: functional;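 further: HCT116 colon tumor cells with beta catenin knocked out; cells exposed to compound for 60 hours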
Caspase-3 [8] = molecular target: T2, Caspase-3 (Homo sapiens, UniProt P42574); assay type: functional
T2 sequence (P42574 whole entry): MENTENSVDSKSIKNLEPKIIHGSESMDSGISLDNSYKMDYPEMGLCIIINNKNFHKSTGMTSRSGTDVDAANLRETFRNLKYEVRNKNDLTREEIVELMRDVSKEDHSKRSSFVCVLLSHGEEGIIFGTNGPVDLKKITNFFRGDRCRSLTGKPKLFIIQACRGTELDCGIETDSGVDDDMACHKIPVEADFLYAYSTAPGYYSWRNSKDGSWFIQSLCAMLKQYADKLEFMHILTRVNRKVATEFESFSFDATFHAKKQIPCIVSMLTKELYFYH

[9] = molecular target: T3, Sentrin-specific protease 7 (Homo sapiens, UniProt Q9BQF6); assay type: functional;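 further: Luminescence-based dose-response confirmation of ultra-high-throughput screening hits, measuring inhibition of SENP7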
T3 sequence (Q9BQF6 whole entry): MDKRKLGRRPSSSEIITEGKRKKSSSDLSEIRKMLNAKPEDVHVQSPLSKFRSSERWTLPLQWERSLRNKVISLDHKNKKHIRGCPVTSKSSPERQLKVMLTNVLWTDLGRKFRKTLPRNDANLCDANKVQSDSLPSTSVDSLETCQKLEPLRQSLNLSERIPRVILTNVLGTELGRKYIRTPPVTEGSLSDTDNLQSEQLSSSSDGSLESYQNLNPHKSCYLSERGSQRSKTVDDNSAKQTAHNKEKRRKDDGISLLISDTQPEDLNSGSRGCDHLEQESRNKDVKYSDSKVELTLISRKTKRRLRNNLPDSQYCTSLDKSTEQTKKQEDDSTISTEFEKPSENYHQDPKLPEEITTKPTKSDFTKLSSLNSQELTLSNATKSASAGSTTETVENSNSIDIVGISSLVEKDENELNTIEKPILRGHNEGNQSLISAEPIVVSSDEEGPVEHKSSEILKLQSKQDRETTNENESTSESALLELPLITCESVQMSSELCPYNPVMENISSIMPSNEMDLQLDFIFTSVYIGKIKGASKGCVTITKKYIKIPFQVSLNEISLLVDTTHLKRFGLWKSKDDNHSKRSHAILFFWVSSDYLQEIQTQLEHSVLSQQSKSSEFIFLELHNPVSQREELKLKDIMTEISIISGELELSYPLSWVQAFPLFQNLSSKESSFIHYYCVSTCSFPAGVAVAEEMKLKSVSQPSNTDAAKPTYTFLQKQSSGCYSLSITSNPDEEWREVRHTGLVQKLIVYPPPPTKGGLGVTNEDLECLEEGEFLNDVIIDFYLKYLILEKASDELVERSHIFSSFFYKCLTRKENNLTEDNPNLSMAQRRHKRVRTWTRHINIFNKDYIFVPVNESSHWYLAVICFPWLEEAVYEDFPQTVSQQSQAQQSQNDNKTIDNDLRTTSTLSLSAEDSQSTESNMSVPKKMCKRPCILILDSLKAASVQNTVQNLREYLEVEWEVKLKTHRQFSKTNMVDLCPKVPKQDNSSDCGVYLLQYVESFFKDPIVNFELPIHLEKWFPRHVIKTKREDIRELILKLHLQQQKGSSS

[10] = molecular target: T4, Sentrin-specific protease 6 (Homo sapiens, UniProt Q9GZR1); assay type: functional
T4 sequence (Q9GZR1 whole entry): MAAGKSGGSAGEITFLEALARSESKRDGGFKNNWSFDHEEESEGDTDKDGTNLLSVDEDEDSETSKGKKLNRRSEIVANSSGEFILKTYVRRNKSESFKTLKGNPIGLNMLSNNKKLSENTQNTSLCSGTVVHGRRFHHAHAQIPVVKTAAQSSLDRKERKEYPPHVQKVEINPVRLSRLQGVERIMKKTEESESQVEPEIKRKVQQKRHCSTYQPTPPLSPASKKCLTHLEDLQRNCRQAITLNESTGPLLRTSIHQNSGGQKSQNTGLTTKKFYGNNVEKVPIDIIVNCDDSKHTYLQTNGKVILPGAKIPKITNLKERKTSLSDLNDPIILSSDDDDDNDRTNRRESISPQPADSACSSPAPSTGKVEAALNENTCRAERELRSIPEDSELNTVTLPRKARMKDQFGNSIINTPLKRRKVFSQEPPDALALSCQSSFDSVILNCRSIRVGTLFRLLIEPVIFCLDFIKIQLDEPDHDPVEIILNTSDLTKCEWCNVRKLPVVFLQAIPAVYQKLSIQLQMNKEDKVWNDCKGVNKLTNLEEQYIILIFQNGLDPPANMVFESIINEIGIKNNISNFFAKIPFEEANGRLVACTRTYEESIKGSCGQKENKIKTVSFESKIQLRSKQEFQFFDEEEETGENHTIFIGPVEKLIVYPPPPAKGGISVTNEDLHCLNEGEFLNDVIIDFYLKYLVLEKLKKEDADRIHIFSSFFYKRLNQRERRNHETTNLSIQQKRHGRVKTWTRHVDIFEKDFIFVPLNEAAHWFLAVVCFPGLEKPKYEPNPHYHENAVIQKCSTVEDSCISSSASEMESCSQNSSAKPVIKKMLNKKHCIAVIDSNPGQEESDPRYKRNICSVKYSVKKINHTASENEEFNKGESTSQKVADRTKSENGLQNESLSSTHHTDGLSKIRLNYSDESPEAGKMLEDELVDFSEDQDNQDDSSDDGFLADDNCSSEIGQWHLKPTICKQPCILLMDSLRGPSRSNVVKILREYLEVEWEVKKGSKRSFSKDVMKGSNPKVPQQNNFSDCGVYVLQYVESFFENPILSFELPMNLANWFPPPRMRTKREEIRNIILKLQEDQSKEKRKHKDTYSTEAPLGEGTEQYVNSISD

[11] = molecular target: T5, Sentrin-specific protease 8 (Homo sapiens, UniProt Q96LD8); assay type: functional;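 further: luminescence read-out of SENP8 inhibition, dose-response confirmation following an ultra-high-throughput screen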
T5 sequence (Q96LD8 whole entry): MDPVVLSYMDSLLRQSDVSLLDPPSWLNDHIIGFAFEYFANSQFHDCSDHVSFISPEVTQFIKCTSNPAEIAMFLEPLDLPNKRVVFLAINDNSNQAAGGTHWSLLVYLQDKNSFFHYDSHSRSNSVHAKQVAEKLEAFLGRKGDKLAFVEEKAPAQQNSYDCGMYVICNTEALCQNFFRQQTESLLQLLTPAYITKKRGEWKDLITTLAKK

[12] = molecular target: T5, Sentrin-specific protease 8; experiment: inhibition of human SENP8 cleavage activity – biochemical, luminescence, SAR follow-up (AID 504501); assay type: functional
Caspase-3 [13] = molecular target: T2, Caspase-3; experiment: SAR Analysis of small molecule inhibitors of Sentrin-specific proteases (SENPs) using a Caspase-3 Selectivity assay. [Related pubchem assays (depositor defined):AID2540, AID2599, AID434973, AID489001]; assay type: functional
[14] = molecular target: T4, Sentrin-specific protease 6; experiment: SAR Analysis of small molecule inhibitors of Sentrin-specific protease 6 (SENP6) using a Luminescent assay. [Related pubchem assays (depositor defined):AID2582, AID2599]; assay type: functional
[15] = molecular target: T3, Sentrin-specific protease 7; experiment: inhibition of human SENP7 cleavage activity – biochemical, luminescence, SAR follow-up (AID 504497); assay type: functional
[16] = molecular target: Neuropeptide Y receptor type 2 (Homo sapiens, UniProt P49146); experiment: Fluorescence-based counterscreen for agonists of NPY-Y1: cell-based high-throughput dose response assay for agonists of NPY-Y2.; assay type: functional
Streptokinase A = molecular target: T6, Streptokinase A (Streptococcus pyogenes serotype M1, UniProt P10520); experiment: viability-normalized secreted streptokinase activity reduction – plasminogen activation absorbance, OD405, dose response (AID 1914); assay type: functional, Streptococcus pyogenes M1 GAS;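 further: secreted streptokinase activity via plasminogen activation per viability signal from cell pellet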
T6 sequence (P10520 whole entry): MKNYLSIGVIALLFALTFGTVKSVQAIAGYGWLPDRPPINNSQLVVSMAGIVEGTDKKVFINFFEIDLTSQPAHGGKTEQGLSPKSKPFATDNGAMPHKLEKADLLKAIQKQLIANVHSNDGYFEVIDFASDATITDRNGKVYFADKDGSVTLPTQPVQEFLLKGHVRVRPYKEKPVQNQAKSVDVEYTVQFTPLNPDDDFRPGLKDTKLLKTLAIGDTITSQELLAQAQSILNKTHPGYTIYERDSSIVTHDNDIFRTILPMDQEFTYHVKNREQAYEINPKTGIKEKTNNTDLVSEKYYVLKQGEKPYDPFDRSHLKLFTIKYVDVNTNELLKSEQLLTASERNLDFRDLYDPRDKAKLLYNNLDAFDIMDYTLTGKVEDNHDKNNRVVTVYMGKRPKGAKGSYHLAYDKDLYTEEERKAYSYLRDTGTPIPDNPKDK

[17] = molecular target: Neuropeptide Y receptor type 1 (Homo sapiens, UniProt P25929); experiment: Fluorescence-based dose response cell-based high-throughput screening assay for agonists of NPY-Y1. [Related pubchem assays: 1697 (Screening assay (NPY-Y1 agonists).), 1359 (Screening assay (NPY-Y2 potentiators or agonists).), 1304 (Screening assay (NPY-Y1 potentiators or agonists).), 1704 (Screening assay (CNGC inhibitors).), 1791 (Summary AID.)]; assay type: functional
Chain of Neuropeptide Y receptor type 1 (P25929 whole entry): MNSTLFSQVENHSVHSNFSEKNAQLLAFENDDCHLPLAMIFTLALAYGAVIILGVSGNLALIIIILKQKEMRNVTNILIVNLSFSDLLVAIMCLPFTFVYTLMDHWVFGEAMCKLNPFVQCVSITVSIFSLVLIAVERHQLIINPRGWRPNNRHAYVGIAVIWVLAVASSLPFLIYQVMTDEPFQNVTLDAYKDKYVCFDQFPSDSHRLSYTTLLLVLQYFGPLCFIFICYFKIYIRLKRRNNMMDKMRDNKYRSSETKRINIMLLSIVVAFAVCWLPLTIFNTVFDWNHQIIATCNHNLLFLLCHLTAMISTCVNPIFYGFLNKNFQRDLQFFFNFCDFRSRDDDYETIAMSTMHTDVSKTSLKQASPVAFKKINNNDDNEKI

Chain of Neuropeptide Y receptor type 2 (P49146 whole entry): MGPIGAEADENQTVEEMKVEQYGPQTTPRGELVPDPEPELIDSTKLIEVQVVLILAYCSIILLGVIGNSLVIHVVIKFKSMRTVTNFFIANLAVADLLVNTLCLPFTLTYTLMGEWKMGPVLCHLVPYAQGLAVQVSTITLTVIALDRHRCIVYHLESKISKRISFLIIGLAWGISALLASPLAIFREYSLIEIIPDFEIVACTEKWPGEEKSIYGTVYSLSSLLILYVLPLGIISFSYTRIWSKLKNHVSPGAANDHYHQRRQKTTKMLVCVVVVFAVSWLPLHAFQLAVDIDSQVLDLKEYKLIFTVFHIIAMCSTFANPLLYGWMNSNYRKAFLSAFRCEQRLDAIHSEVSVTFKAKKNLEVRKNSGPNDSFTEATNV
Chain of Photoreceptor-specific nuclear receptor (Q9Y5X4 whole entry): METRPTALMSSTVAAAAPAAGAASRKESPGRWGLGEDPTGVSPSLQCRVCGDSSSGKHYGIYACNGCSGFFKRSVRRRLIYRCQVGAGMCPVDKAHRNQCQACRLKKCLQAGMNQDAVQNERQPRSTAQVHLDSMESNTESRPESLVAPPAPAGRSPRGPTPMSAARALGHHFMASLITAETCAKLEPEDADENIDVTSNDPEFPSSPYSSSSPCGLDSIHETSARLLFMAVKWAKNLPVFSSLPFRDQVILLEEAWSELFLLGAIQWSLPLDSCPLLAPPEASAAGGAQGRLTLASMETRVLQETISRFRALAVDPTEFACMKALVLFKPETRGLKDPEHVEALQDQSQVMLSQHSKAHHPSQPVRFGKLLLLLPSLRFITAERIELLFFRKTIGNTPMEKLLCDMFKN
Chain of Glyceraldehyde-3-phosphate dehydrogenase (P04406 whole entry): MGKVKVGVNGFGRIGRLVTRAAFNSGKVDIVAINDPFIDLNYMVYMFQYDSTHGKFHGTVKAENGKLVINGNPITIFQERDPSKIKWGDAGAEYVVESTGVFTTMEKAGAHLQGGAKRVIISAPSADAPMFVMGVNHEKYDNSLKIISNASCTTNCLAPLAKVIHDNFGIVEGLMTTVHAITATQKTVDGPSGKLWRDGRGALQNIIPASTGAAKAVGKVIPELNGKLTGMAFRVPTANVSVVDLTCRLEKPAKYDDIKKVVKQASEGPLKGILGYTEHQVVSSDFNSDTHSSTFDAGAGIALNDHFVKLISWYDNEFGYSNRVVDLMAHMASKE
Chain of Peroxisome proliferator-activated receptor gamma/Nuclear receptor corepressor 2 (P37231 whole entry): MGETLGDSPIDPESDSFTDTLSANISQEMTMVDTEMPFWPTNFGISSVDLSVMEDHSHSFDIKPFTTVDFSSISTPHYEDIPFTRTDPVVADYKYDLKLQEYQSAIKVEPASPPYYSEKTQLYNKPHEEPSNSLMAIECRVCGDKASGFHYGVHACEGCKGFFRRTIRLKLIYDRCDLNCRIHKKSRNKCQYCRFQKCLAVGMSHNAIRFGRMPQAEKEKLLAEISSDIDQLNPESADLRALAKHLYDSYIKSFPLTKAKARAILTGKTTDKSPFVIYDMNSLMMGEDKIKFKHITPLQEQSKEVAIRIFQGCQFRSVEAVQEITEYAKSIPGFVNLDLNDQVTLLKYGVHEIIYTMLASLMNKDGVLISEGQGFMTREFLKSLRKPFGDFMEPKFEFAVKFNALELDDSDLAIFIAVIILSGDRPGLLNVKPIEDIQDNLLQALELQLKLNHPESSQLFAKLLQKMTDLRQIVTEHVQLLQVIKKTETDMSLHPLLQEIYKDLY
Chain of Peroxisome proliferator-activated receptor gamma/Nuclear receptor corepressor 2 (Q9Y618 whole entry): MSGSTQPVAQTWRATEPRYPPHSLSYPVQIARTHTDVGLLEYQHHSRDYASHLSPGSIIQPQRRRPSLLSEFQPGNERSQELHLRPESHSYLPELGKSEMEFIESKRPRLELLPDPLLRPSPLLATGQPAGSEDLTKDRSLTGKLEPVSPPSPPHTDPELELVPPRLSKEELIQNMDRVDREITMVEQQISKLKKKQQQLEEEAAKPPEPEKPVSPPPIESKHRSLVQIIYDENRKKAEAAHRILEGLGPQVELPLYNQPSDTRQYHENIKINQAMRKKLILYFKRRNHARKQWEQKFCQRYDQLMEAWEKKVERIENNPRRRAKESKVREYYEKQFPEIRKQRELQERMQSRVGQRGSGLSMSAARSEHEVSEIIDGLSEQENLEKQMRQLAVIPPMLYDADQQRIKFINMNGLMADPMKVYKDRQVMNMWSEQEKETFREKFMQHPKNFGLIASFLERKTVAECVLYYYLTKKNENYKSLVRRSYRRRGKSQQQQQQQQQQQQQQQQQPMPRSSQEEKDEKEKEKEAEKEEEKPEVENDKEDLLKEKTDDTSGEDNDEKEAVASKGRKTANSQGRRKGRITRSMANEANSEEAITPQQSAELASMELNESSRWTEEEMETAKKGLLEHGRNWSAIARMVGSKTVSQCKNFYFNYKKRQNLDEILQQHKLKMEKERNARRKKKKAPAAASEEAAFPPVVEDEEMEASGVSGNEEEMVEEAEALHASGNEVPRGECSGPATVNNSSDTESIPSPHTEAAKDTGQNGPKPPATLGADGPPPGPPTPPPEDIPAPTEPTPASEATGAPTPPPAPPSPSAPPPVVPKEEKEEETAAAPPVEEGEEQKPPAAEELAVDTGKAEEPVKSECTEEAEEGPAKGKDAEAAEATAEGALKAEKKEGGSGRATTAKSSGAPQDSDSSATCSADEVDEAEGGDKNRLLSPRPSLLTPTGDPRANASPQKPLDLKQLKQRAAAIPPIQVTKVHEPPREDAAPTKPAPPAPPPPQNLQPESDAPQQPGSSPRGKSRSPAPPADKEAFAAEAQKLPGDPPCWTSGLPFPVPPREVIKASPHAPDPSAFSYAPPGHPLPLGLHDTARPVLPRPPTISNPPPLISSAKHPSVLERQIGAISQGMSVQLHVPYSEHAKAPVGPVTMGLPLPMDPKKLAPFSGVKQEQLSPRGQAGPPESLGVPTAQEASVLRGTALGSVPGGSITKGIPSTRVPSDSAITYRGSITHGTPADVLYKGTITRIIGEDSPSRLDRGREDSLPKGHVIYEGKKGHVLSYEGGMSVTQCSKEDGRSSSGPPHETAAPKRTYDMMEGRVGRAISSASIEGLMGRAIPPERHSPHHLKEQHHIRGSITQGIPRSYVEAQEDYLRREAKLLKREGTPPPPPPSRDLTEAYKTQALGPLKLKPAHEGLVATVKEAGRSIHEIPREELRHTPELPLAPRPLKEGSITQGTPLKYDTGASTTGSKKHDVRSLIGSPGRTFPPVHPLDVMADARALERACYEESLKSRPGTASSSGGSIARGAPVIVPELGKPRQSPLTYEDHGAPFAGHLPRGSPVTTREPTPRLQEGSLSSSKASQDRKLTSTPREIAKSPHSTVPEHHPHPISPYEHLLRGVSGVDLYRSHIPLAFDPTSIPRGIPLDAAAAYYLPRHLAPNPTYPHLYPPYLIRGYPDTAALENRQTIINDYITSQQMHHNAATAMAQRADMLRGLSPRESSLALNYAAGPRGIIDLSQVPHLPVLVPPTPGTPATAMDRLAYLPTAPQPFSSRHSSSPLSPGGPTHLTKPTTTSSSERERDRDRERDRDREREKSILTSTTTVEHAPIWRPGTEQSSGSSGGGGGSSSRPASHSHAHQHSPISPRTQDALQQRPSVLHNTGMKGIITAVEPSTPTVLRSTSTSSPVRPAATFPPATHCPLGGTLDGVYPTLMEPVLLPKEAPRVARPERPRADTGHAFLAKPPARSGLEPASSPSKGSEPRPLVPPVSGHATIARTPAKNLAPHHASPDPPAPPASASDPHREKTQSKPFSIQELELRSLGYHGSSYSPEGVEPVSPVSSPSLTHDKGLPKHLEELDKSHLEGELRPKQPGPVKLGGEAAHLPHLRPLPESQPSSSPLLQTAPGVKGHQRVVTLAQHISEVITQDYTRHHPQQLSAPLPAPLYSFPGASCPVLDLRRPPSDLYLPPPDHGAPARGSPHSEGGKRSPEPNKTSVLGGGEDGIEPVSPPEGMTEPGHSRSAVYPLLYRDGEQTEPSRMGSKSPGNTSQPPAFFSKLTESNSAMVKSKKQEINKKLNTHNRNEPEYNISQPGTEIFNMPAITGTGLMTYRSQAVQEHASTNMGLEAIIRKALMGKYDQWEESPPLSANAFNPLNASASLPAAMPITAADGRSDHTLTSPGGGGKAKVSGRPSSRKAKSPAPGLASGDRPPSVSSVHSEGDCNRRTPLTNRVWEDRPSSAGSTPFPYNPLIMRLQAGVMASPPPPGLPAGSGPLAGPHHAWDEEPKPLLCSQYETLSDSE

Compound: CCN1CCN(C2=C(Cl)C(=O)N(c3ccc([N+](=O)[O-])cc3)C2=O)CC1
- IC50 [1]: > 100 µM (not active)
- IC50 (Bcl-2-related protein A1 [2]): 0.83 µM (active)
- IC50 (Bcl-2-related protein A1 [3]): 0.565 µM (active)

Compound: Cc1cc2nc(-c3ccc(SCC(=O)Nc4ccc(S(=O)(=O)NC5CC5)cc4)nc3)[nH]c2cc1C
- EC50 [4]: 22.7 µM (active)
- IC50 [5]: 4.15 µM (active)
- IC50 [6]: > 39.8 µM (not active)
- EC50 [7]: 24.7 µM (active)
- IC50 (Caspase-3 [8]): 21.3 µM (active)
- IC50 [9]: 2.43 µM (active)
- IC50 [10]: > 100 µM (inactive)
- IC50 [11]: > 100 µM (inactive)
- IC50 [12]: > 99 µM (inactive)
- IC50 (Caspase-3 [13]): 14.4 µM (active)
- IC50 [14]: > 99 µM (inactive)
- IC50 [15]: 2.75 µM (active)

Compound: CCOc1ccc(NC(=S)NNC(=S)Nc2cccc(C(F)(F)F)c2)cc1
- EC50 [16]: > 35.4 µM (not active)
- EC50 (Streptokinase A): > 150 µM (not active)
- EC50 [17]: 27.3 µM (not active)
